# Results published in patent publication US12433908B2, “Use of nicotinamide riboside, nicotinic acid riboside, and nicotinamide mononucleotide, reduced nicotinyl compounds, and nicotinoyl compound derivatives in infant formula for healthy development” (ChromaDex, Inc., priority 2016, dated 2025).
# Columns and labels:
# [1] = Blood chemistry analysis of piglets given NR solution; type: in vivo, piglets (Yorkshire/Hampshire crossbred)
# Description: Sixteen (n=16) Yorkshire/Hampshire crossbred piglets were obtained from the University of California, Davis Swine Teaching and Research Center and received on lactation day (“LD”) 14. Prior to arrive, the piglets were processed by the suppler between 1-3 days of age by administration of iron and an antibiotic ([…] for swine) as is common practice at the University of California, Davis Swine Facility. It is not common practice at the University of California, Davis Swine Facility to give a second dose of iron and antibiotics unless it becomes necessary. The piglets were from two litters (litters 15 and 17), weaned at 17 days of age, and randomly placed into one of two groups balanced for litter, sex, and weight. The animals were not acclimated to the facility at arrival and were subsequently acclimated to the test diet administration system. The piglets were weaned into a temperature-controlled room (approximately 27-29° C.) that contained 10 adjacent pens. The piglets were group-housed in the nursery room at the Swine Facility, which is an enclosed room with access restricted to trained personnel. The two groups were separated by one pen containing piglets of similar age. Each morning enough nicotinamide riboside (NR, I) in water solution was prepared for that day's dose administration according to the dose preparation protocol. At least 5 mL of prepared dose was reserved and immediately frozen after preparation each day for analysis of nicotinamide riboside (NR, I) for the purpose of confirming stability of the dose material. The doses were stored at refrigeration temperature while not in use. Nicotinamide riboside (NR, I) was dosed once per day in the morning and at the same time each day. Piglets in the control group received the same volume of plain water and were dosed on the same schedule. Starting on Day 1, animals in the nicotinamide riboside (NR, I) group were dosed once daily (in the morning) with 277 mg nicotinamide riboside (NR, I) per pig resuspended in water for seven days. After one week, animals were dosed once daily with 342 mg nicotinamide riboside (NR, I) per pig delivered in 2.5 mL for seven days. For Days 1 and 2, the nicotinamide riboside (NR, I) solution was prepared by resuspending 2770 mg nicotinamide riboside (NR, I) in 50 mL water, and 5 mL of this solution was delivered to each pig by squirting it into the back of the mouth using a 10 mL syringe with a piece of tubing attached to the end. To reduce the volume to more efficiently deliver the nicotinamide riboside (NR, I) solution, the 2770 mg was resuspended in 25 mL water and 2.5 mL of the solution was squirted into the back of the mouth of each pig using a 3 mL syringe for Days 3-7. For Days 8-14, 3420 mg nicotinamide riboside (NR, I) was resuspended in 25 mL water and 2.5 mL of this solution was delivered to each pig. Each day prior to dosing, 2.5 mL of the nicotinamide riboside (NR, I) (5 mL on Days 1 and 2) were placed into a separate tube and frozen. Blood was collected from each pig via jugular venipuncture on Days 1, 8, and 14. In each instance, blood was collected prior to dosing with nicotinamide riboside (NR, I). On Day 1, the sow was removed from the piglets for approximately three hours prior to sample collection. On Days 8 and 14, feed was removed from the animals' pens 12 hours prior to sample collection. Blood was collected into purple-top vacutainers for CBC analysis and into red-top vacutainers for blood chemistry analysis. CBC analysis was performed at IDEXX Laboratories in West Sacramento, California using the Sysmex XT-iV Vet Hematology Autoanalyzer (Sysmex America Inc., Lincolnshire, Illinois). Red-top tubes were spun to collect serum and the serum frozen. Frozen aliquots (500 μL) were submitted to the University of California, Davis Veterinary medicine Teaching Hospital Clinical Diagnostic Laboratory for Blood Chemistry Analysis using the Cobas 6000 C501 Clinical Chemistry Analyzer (Roche Diagnostics, Indianapolis, IN). […]
# [2] = test system: milk proteins; test: WaterLOGSY NMR direct binding of 15N-labeled NR to milk proteins; details: increasing additions of milk
# Description: Whey protein fraction and casein protein have been identified as leading candidates to bind directly to and stabilize nicotinamide riboside (NR, I) in milk. The addition of these proteins in particular (either alone or in combination with other proteins) in order to stabilize nicotinamide riboside (NR, I) in liquid constitutes another embodiment of a method of delivery of the present invention. […] In this experiment, Water-Ligand Observed via Gradient Spectroscopy (WaterLOGSY NMR) was used to detect direct binding of stable, isotope-labeled (^15N) nicotinamide riboside (NR, I) to milk proteins. This is visualized as a concentration-dependent shift in the nicotinamide riboside (NR, I) spectra with increasing additions of milk. The concentric shapes shifts from left to right are the results of addition of no milk, 150 mL of milk, and […] of milk, respectively.
# [3] = Wk 1, 277 mg/pig once daily oral
# [4] = Wk 2, 342 mg/pig once daily oral Days 8-14
structure (smiles),measurement,setting,value
"NC(=O)c1ccc[n+]([C@@H]2O[C@H](CO)[C@@H](O)[C@H]2O)c1 [NR, Nicotinamide riboside]",AST,"[1]; Baseline, before dosing",45.5 U/L
same,Albumin,"[1]; Baseline, before dosing",3.74 g/dL
same,Alkaline Phosphatase,"[1]; Baseline, before dosing",720 U/L
same,Anion Gap,"[1]; Baseline, before dosing",26.7 mmol/L
same,BUN,"[1]; Baseline, before dosing",5.8 mg/dL
same,Bicarbonate,"[1]; Baseline, before dosing",19.4 mmol/L
same,Bilirubin Total,"[1]; Baseline, before dosing",0.40 mg/dL
same,Calcium,"[1]; Baseline, before dosing",10.6 mg/dL
same,Chloride,"[1]; Baseline, before dosing",100.3 mmol/L
same,Creatine Kinase,"[1]; Baseline, before dosing",1.30 ×10^3 U/L
same,Creatinine,"[1]; Baseline, before dosing",0.94 mg/dL
same,GGT,"[1]; Baseline, before dosing",43.8 U/L
same,Globulin,"[1]; Baseline, before dosing",0.86 g/dL
same,Glucose,"[1]; Baseline, before dosing",117.8 mg/dL
same,Phosphorus,"[1]; Baseline, before dosing",9.9 mg/dL
same,Potassium,"[1]; Baseline, before dosing",4.50 mmol/L
same,Sodium,"[1]; Baseline, before dosing",141.9 mmol/L
same,Total Protein,"[1]; Baseline, before dosing",4.59 g/dL
same,AST,[1]; [3],50.6 U/L
same,Albumin,[1]; [3],3.43 g/dL
same,Alkaline Phosphatase,[1]; [3],326 U/L
same,Anion Gap,[1]; [3],21.1 mmol/L
same,BUN,[1]; [3],10.9 mg/dL
same,Bicarbonate,[1]; [3],20.1 mmol/L
same,Bilirubin Total,[1]; [3],0.40 mg/dL
same,Calcium,[1]; [3],9.0 mg/dL
same,Chloride,[1]; [3],96.1 mmol/L
same,Creatine Kinase,[1]; [3],0.88 ×10^3 U/L
same,Creatinine,[1]; [3],1.07 mg/dL
same,GGT,[1]; [3],41.4 U/L
same,Globulin,[1]; [3],0.97 g/dL
same,Glucose,[1]; [3],99.7 mg/dL
same,Phosphorus,[1]; [3],6.5 mg/dL
same,Potassium,[1]; [3],4.27 mmol/L
same,Sodium,[1]; [3],133.1 mmol/L
same,Total Protein,[1]; [3],4.40 g/dL
same,AST,[1]; [4],36.7 U/L
same,Albumin,[1]; [4],3.29 g/dL
same,Alkaline Phosphatase,[1]; [4],285 U/L
same,Anion Gap,[1]; [4],20.4 mmol/L
same,BUN,[1]; [4],8.6 mg/dL
same,Bicarbonate,[1]; [4],23.7 mmol/L
same,Bilirubin Total,[1]; [4],0.27 mg/dL
same,Calcium,[1]; [4],9.8 mg/dL
same,Chloride,[1]; [4],97.1 mmol/L
same,Creatine Kinase,[1]; [4],0.55 ×10^3 U/L
same,Creatinine,[1]; [4],0.80 mg/dL
same,GGT,[1]; [4],42.6 U/L
same,Globulin,[1]; [4],1.20 g/dL
same,Glucose,[1]; [4],77.1 mg/dL
same,Phosphorus,[1]; [4],7.5 mg/dL
same,Potassium,[1]; [4],4.10 mmol/L
same,Sodium,[1]; [4],137.3 mmol/L
same,Total Protein,[1]; [4],4.49 g/dL
same,direct binding to milk proteins,[2],binds to proteins in milk
